ChEMBL document CHEMBL1255512, “Pyrazolo[1,5-a]pyrimidine acetamides: 4-Phenyl alkyl ether derivatives as potent ligands for the 18 kDa translocator protein (TSPO)” (Bioorg Med Chem Lett, 2010)

Assay: Displacement of [3H]Ro151788 from CBR in rat […]
Assay type: tissue-based

Ki, > 10 µM:
CCN(CC)C(=O)Cc1c(-c2ccc(OC)cc2)nn2c(C)cc(C)nc12
CCN(CC)C(=O)Cc1c(-c2ccc(OCCF)cc2)nn2c(C)cc(C)nc12 [DPA-714]
CCC(C)N(C)C(=O)c1cc2ccccc2c(-c2ccccc2Cl)n1 (stereo not drawn) [PK-11195]
